In ChEMBL document CHEMBL5512603, “Development of de-novo coronavirus 3-chymotrypsin-like protease (3CLpro) inhibitors since COVID-19 outbreak: A strategy to tackle challenges of persistent virus infection” (Eur J Med Chem, 2024):

Legend:
SARS-CoV-2 [1] = test: Antiviral activity against wild type SARS-CoV-2 infected in African green monkey VeroE6/TMPRSS2 cells at 1 MOI assessed as reduction in plaque formation measured after 48 hrs by measuring luciferase activity assay; type: functional, organism-based; conditions: Severe acute respiratory syndrome coronavirus 2, VeroE6/TMPRSS2, 48 h
SARS-CoV-2 [2] = test: Antiviral activity against SARS-CoV-2 B.1.1.7 (Alpha) infected in African green monkey VeroE6/TMPRSS2 cells at 1 MOI assessed as reduction in plaque formation measured after 48 hrs by measuring luciferase activity assay; type: functional, organism-based; conditions: Severe acute respiratory syndrome coronavirus 2, B.1.1.7 (Alpha), VeroE6/TMPRSS2, 48 h
[3] = Oral bioavailability in ICR mouse measured at 150 mg/kg upto 24 hrs by LC-MS/MS analysis; type: ADME, organism-based; conditions: in vivo
[4] = AUC in ICR mouse measured at 150 mg/kg, po upto 24 hrs by LC-MS/MS analysis; type: ADME, organism-based; conditions: in vivo
[5] = Half life in ICR mouse measured at 150 mg/kg, po upto 24 hrs by LC-MS/MS analysis; type: ADME, organism-based; conditions: in vivo
SARS-CoV-2 [6] = test: Antiviral activity against SARS-CoV-2 B.1.617.1 (Kappa) infected in African green monkey VeroE6/TMPRSS2 cells at 1 MOI assessed as reduction in plaque formation measured after 48 hrs by measuring luciferase activity assay; type: functional, organism-based; conditions: Severe acute respiratory syndrome coronavirus 2, B.1.617.1 (Kappa), VeroE6/TMPRSS2, 48 h
SARS-CoV-2 [7] = test: Antiviral activity against SARS-CoV-2 P.3 (Theta) infected in African green monkey VeroE6/TMPRSS2 cells at 1 MOI assessed as reduction in plaque formation measured after 48 hrs by measuring luciferase activity assay; type: functional, organism-based; conditions: Severe acute respiratory syndrome coronavirus 2, P.3 (Theta), VeroE6/TMPRSS2, 48 h
[8] = Half life in cynomolgus monkey at 5 mg/kg, po; type: ADME, organism-based, Macaca fascicularis; conditions: in vivo
SARS-CoV-2 [9] = test: Antiviral activity against SARS-CoV-2 Omicron BA.5 infected in African green monkey Vero E6 cells assessed as inhibition of virus induced cytopathic effect by MTT assay; type: functional, organism-based; conditions: Severe acute respiratory syndrome coronavirus 2, Omicron BA.5, Vero C1008
SARS-CoV-2 [10] = test: Antiviral activity against SARS-CoV-2 Delta infected in African green monkey Vero E6 cells assessed as inhibition of virus induced cytopathic effect by MTT assay; type: functional, organism-based; conditions: Severe acute respiratory syndrome coronavirus 2, Delta, Vero C1008
SARS-CoV-2 [11] = test: Antiviral activity against wild type SARS-CoV-2 infected in African green monkey Vero E6 cells assessed as inhibition of virus induced cytopathic effect by MTT assay; type: functional, organism-based; conditions: Severe acute respiratory syndrome coronavirus 2, Vero C1008
[12] = Tmax in cynomolgus monkey at 5 mg/kg, po; type: ADME, organism-based, Macaca fascicularis; conditions: in vivo
[13] = Cmax in cynomolgus monkey at 5 mg/kg, po; type: ADME, organism-based, Macaca fascicularis; conditions: in vivo
SARS-CoV-2 [14] = test: Antiviral activity against SARS-CoV-2 Beta infected in African green monkey Vero E6 cells assessed as inhibition of virus induced cytopathic effect by MTT assay; type: functional, organism-based; conditions: Severe acute respiratory syndrome coronavirus 2, Beta, Vero C1008
SARS-CoV-2 [15] = test: Antiviral activity against SARS-CoV-2 Omicron BA.1 infected in African green monkey Vero E6 cells assessed as inhibition of virus induced cytopathic effect by MTT assay; type: functional, organism-based; conditions: Severe acute respiratory syndrome coronavirus 2, Omicron BA.1, Vero C1008
SARS-CoV-2 [16] = test: Antiviral activity against SARS-CoV-2 Alpha infected in African green monkey Vero E6 cells assessed as inhibition of virus induced cytopathic effect by MTT assay; type: functional, organism-based; conditions: Severe acute respiratory syndrome coronavirus 2, Alpha, Vero C1008
[17] = AUC (0 to last) in cynomolgus monkey at 5 mg/kg, po; type: ADME, organism-based, Macaca fascicularis; conditions: in vivo
SARS-CoV-2 [18] = test: Antiviral activity against SARS-CoV-2 infected in African green monkey Vero E6 cells at 0.1 MOI assessed as inhibition of virus induced cytopathic effect by CCK8 assay; type: functional, organism-based; conditions: Severe acute respiratory syndrome coronavirus 2, Vero C1008
[19] = molecular target: T1, Replicase polyprotein 1ab (Severe acute respiratory syndrome coronavirus 2, UniProt P0DTD1); test: Inhibition of SARS-CoV-2 3CLp using fluorescent substrate by FRET assay
SARS-CoV-2 [20] = test: Antiviral activity against SARS-CoV-2 infected in Caco-2-ACE2 assessed as inhibition of viral replication; type: functional, organism-based; conditions: Severe acute respiratory syndrome coronavirus 2, Caco-2-ACE2
[21] = molecular target: T1, Replicase polyprotein 1ab; test: Inhibition of SARS-CoV-2 Main protease assessed as hydrolysis of quenched fluorogenic substrate
[22] = AUClast in po dosed rat; type: ADME, organism-based; conditions: in vivo
[23] = Oral bioavailability in rat; type: ADME, organism-based; conditions: in vivo
[24] = Cmax in po dosed rat; type: ADME, organism-based; conditions: in vivo
[25] = Half life in po dosed rat; type: ADME, organism-based; conditions: in vivo
[26] = Tmax in po dosed rat; type: ADME, organism-based; conditions: in vivo

Question: With `[2H][C@](C(=O)N[C@@H](C)c1ccc(F)cc1)(c1cccnc1)N(C(=O)C(C)=O)c1ccc2c(c1)oc1ccccc12` as the compound, how does the EC50 (SARS-CoV-2 [1]) read?
Answer: 11.4 nM

Question: What about the EC50 (SARS-CoV-2 [2]) of the same compound?
Answer: 20.3 nM

Question: What about the bioavailability [3] of the same compound?
Answer: 92.9%

Question: What about the AUC at 24 h [4] of the same compound?
Answer: 29200 ng·h/mL

Question: What about the half-life [5] of the same compound?
Answer: 1.42 h

Question: What about the EC50 (SARS-CoV-2 [6]) of the same compound?
Answer: 34.4 nM

Question: What about the EC50 (SARS-CoV-2 [7]) of the same compound?
Answer: 23.7 nM

Question: Which half-life [8] does the source give for `O=C(NC1CCCC1)C(=O)[C@H](C[C@@H]1CCNC1=O)NC(=O)[C@@H]1[C@H]2CCC[C@H]2CN1C(=O)[C@@H](NC(=O)C(F)(F)F)C1CCCCC1` here?
Answer: 14.9 h

Question: What about the EC50 (SARS-CoV-2 [9]) of the same compound?
Answer: 130 nM

Question: And the EC50 (SARS-CoV-2 [10])?
Answer: 97 nM

Question: What about the EC50 (SARS-CoV-2 [11]) of the same compound?
Answer: 95 nM

Question: What about the Tmax [12] of the same compound?
Answer: 1.5 h

Question: And the Cmax [13]?
Answer: 102 nM

Question: And the EC50 (SARS-CoV-2 [14])?
Answer: 277 nM

Question: What about the EC50 (SARS-CoV-2 [15]) of the same compound?
Answer: 86 nM

Question: And the EC50 (SARS-CoV-2 [16])?
Answer: 130 nM

Question: What about the AUC(0-t) [17] of the same compound?
Answer: 0.458 µM·h

Question: What does the source list for `O=C[C@@H](C[C@H]1CCNC1=O)NC(=O)[C@H]1[C@@H]2CCC[C@@H]2CN1C(=O)OCc1ccccc1`?
Answer: EC50 (SARS-CoV-2 [18]): 2560 nM; IC50 [19]: 51 nM; EC50 (SARS-CoV-2 [20]): 5240 nM

Question: With `Cc1c(Br)cncc1NC[C@@H](N)CC1CCCCC1` as the compound, how does the IC50 [21] read?
Answer: 7500 nM

Question: Which results are given for `Cn1cc2cc(/N=c3\[nH]c(=O)n(Cc4cnn[nH]4)c(=O)n3Cc3cc(F)c(F)cc3F)c(Cl)cc2n1`?
Answer: AUC(0-t) [22]: 32600 ng·h/mL; bioavailability [23]: 88.1%; Cmax [24]: 6270 ng/mL; half-life [25]: 2.51 h; Tmax [26]: 1 h
